Experimental data published in ChEMBL document CHEMBL1125024, “Hemoglobin S antigelation agents based on 5-bromotryptophan with potential for sickle cell anemia” (J Med Chem, 1990).
Where a SMILES comes first, the peptide text is derived from it. [ ]: non-standard residue; d: D form. Trp(5-Br) = N[C@@H](Cc1c[nH]c2ccc(Br)cc12)C(=O)O

Species on record: Homo sapiens
Experiment: Inhibitory activity against aggregation of deoxy-HbS using CSAT assay
Format: functional

In order of falling Slope:
1. N[C@@H](Cc1c[nH]c2ccc(Br)cc12)C(=O)N[C@@H](Cc1c[nH]c2ccc(Br)cc12)C(=O)O (H-[Trp(5-Br)]-[Trp(5-Br)]-OH)  726 g dl-1M-1
2. N[C@@H](Cc1c[nH]c2ccc(Br)cc12)C(=O)O  356 g dl-1M-1
3. N[C@@H](Cc1c[nH]c2ccc(Br)cc12)C(=O)N[C@@H](Cc1c[nH]c2ccccc12)C(=O)O (H-[Trp(5-Br)]-Trp-OH)  334 g dl-1M-1
4. N[C@@H](Cc1c[nH]c2ccccc12)C(=O)N[C@@H](Cc1c[nH]c2ccc(Br)cc12)C(=O)O (H-Trp-[Trp(5-Br)]-OH)  240 g dl-1M-1
5. N[C@@H](Cc1c[nH]c2ccccc12)C(=O)N[C@@H](Cc1c[nH]c2ccccc12)C(=O)O (H-Trp-Trp-OH)  235 g dl-1M-1
6. N[C@@H](Cc1c[nH]c2ccccc12)C(=O)O  124 g dl-1M-1
